Experimental data published in ChEMBL document CHEMBL1136564, “Sordaricin antifungal agents” (2003).
≈ marks a conversion by molar mass, not a printed value.

Legend:
Nakaseomyces glabratus = assay: Minimum inhibitory concentration required to inhibit 90 to 100% visible growth of Candida glabrata; assay type: functional
Candida albicans = assay: Minimum inhibitory concentration to inhibit 90 to 100% visible growth of Candida albicans; assay type: functional

| SMILES | MIC (Nakaseomyces glabratus) | MIC (Candida albicans) |
| --- | --- | --- |
| CC(C)C1=CC2CC3(C=O)C4CC[C@@H](C)C4CC2(CCOC(=O)[C@H](C)NC(=O)OC(C)(C)C)C13C(=O)O (stereo partly specified) | > 128 µg/mL | 32 µg/mL (≈ 61.8 µM) |
| CC(C)C1=CC2CC3(C=O)C4CC[C@@H](C)C4CC2(CCO)C13C(=O)O (stereo partly specified) | > 128 µg/mL | > 128 µg/mL |
| CC(C)C1=CC2CC3(C=O)C4CC[C@@H](C)C4CC2(CCOC(=O)C2CCN(C(=O)OC(C)(C)C)CC2)C13C(=O)O (stereo partly specified) | > 128 µg/mL | 8 µg/mL (≈ 14.3 µM) |
| CC(C)C1=CC2CC3(C=O)C4CC[C@@H](C)C4CC2(CCOC(=O)c2cccn2C)C13C(=O)O (stereo partly specified) | > 128 µg/mL | > 128 µg/mL |
| CC(C)C1=CC2CC3(C=O)C4CC[C@@H](C)C4CC2(CCOC(=O)c2cnc4ccccc4c2)C13C(=O)O (stereo partly specified) | > 128 µg/mL | 4 µg/mL (≈ 7.97 µM) |
| CC(C)C1=CC2CC3(C=O)C4CC[C@@H](C)C4CC2(CCOC(=O)c2cc(C(=O)O)[nH]n2)C13C(=O)O (stereo partly specified) | > 128 µg/mL | > 128 µg/mL |
| CC(C)C1=CC2CC3(C=O)[C@@H]4CC[C@@H](C)[C@H]4CC2(C(O)CCc2ccccc2)[C@]13C(=O)O (stereo partly specified) | > 128 µg/mL | > 128 µg/mL |
| CC(C)C1=CC2CC3(C=O)C4CC[C@@H](C)C4CC2(CCOC(=O)c2ccccc2)C13C(=O)O (stereo partly specified) | > 128 µg/mL | 32 µg/mL (≈ 71 µM) |
| CC(C)C1=CC2CC3(C=O)C4CC[C@@H](C)C4CC2(CCOC(=O)Cc2c[nH]c4ccccc24)C13C(=O)O (stereo partly specified) | > 128 µg/mL | – |
| CSc1ccc(CC(=O)OCCC23CC4C(CC[C@H]4C)C4(C=O)CC2C=C(C(C)C)C43C(=O)O)cc1 (stereo partly specified) | > 128 µg/mL | 0.5 µg/mL (≈ 0.979 µM) |
| CC(=O)OCC(=O)OCCC12CC3C(CC[C@H]3C)C3(C=O)CC1C=C(C(C)C)C32C(=O)O (stereo partly specified) | > 128 µg/mL | > 128 µg/mL |
| CC(C)C1=CC2CC3(C=O)C4CC[C@@H](C)C4CC2(CCOC(=O)CCNC(=O)OC(C)(C)C)C13C(=O)O (stereo partly specified) | > 128 µg/mL | 64 µg/mL (≈ 124 µM) |
| CC(C)C1=CC2CC3(C=O)C4CC[C@@H](C)C4CC2(CCOC(=O)c2ccc4[nH]cnc4c2)C13C(=O)O (stereo partly specified) | > 128 µg/mL | > 128 µg/mL |
| CCCCCCCCCCCCCCCCC(O)C12C[C@@H]3[C@H](C)CC[C@H]3C3(C=O)CC1C=C(C(C)C)[C@@]23C(=O)O (stereo partly specified) | > 128 µg/mL | > 128 µg/mL |
| CC(C)C1=CC2CC3(C=O)C4CC[C@@H](C)C4CC2(CCOC(=O)c2cccs2)C13C(=O)O (stereo partly specified) | > 128 µg/mL | > 128 µg/mL |
| CC(C)C1=CC2CC3(C=O)C4CC[C@@H](C)C4CC2(CCOC(=O)c2cccc(C(=O)O)n2)C13C(=O)O (stereo partly specified) | > 128 µg/mL | > 128 µg/mL |

| SMILES | MIC (Nakaseomyces glabratus) | MIC (Candida albicans) |
| --- | --- | --- |
| CC(=O)CCC(=O)OCCC12CC3C(CC[C@H]3C)C3(C=O)CC1C=C(C(C)C)C32C(=O)O (stereo partly specified) | > 128 µg/mL | 8 µg/mL (≈ 18 µM) |
| CC(C)C1=CC2CC3(C=O)C4CC[C@@H](C)C4CC2(CCOC(=O)c2ccc(S(N)(=O)=O)cc2)C13C(=O)O (stereo partly specified) | > 128 µg/mL | > 128 µg/mL |
| CC(C)C1=CC2CC3(C=O)C4CC[C@@H](C)C4CC2(CCOC(=O)CNC(=O)OC(C)(C)C)C13C(=O)O (stereo partly specified) | > 128 µg/mL | 128 µg/mL (≈ 254 µM) |
| CC(C)C1=CC2CC3(C=O)C4CC[C@@H](C)C4CC2(CCOC(=O)c2ccc([N+](=O)[O-])cc2Cl)C13C(=O)O (stereo partly specified) | > 128 µg/mL | 128 µg/mL (≈ 242 µM) |
| CCCCCCCCCCCCCCCCC(=O)C12C[C@@H]3[C@H](C)CC[C@H]3C3(C=O)CC1C=C(C(C)C)[C@@]23C(=O)O | > 128 µg/mL | > 128 µg/mL |
| CC(C)C1=CC2CC3(C=O)C4CC[C@@H](C)C4CC2(CCOC(=O)c2cc4ccccc4o2)C13C(=O)O (stereo partly specified) | > 128 µg/mL | > 128 µg/mL |
| CC(C)C1=CC2CC3(C=O)C4CC[C@@H](C)C4CC2(CCOC(=O)c2ccc(C#N)cc2)C13C(=O)O (stereo partly specified) | > 128 µg/mL | 8 µg/mL (≈ 16.8 µM) |
| CSc1ccc(C(=O)OCCC23CC4C(CC[C@H]4C)C4(C=O)CC2C=C(C(C)C)C43C(=O)O)cc1 (stereo partly specified) | > 128 µg/mL | 2 µg/mL (≈ 4.03 µM) |
| CC(C)C1=CC2CC3(C=O)C4CC[C@@H](C)C4CC2(CCOC(=O)Cc2ccc(N(C)C)cc2)C13C(=O)O (stereo partly specified) | > 128 µg/mL | 1 µg/mL (≈ 1.97 µM) |
| CC(C)C1=CC2CC3(C=O)C4CC[C@@H](C)C4CC2(CCOC(=O)[C@H](NC(=O)OC(C)(C)C)c2ccccc2)C13C(=O)O (stereo partly specified) | > 128 µg/mL | 4 µg/mL (≈ 6.9 µM) |
| CC(C)C1=CC2CC3(C=O)C4CC[C@@H](C)C4CC2(CCOC(=O)[C@@H]2CCC(=O)N2)C13C(=O)O (stereo partly specified) | > 128 µg/mL | > 128 µg/mL |
| CC(C)C1=CC2CC3(C=O)C4CC[C@@H](C)C4CC2(CCOC(=O)c2cc[n+]([O-])cc2)C13C(=O)O (stereo partly specified) | > 128 µg/mL | > 128 µg/mL |
| CC(C)C1=CC2CC3(C=O)C4CC[C@@H](C)C4CC2(CCOC(=O)c2ccc(Cl)cc2)C13C(=O)O (stereo partly specified) | > 128 µg/mL | 4 µg/mL (≈ 8.25 µM) |
| CC(C)C1=CC2CC3(C=O)C4CC[C@@H](C)C4CC2(CCOC(=O)CCC(=O)O)C13C(=O)O (stereo partly specified) | > 128 µg/mL | < 128 µg/mL |
| CC(C)C1=CC2CC3(C=O)C4CC[C@@H](C)C4CC2(CCOC(=O)c2ccco2)C13C(=O)O (stereo partly specified) | > 128 µg/mL | 8 µg/mL (≈ 18.2 µM) |
| CC(C)C1=CC2CC3(C=O)C4CC[C@@H](C)C4CC2(CCOC(=O)c2ccc(Cl)nc2)C13C(=O)O (stereo partly specified) | > 128 µg/mL | 4 µg/mL (≈ 8.23 µM) |

Results, then the compound that gave them:

| MIC (Nakaseomyces glabratus) | MIC (Candida albicans) | SMILES |
| --- | --- | --- |
| > 128 µg/mL | 8 µg/mL (≈ 15.4 µM) | CC(C)C1=CC2CC3(C=O)C4CC[C@@H](C)C4CC2(CCOC(=O)Cc2csc4ccccc24)C13C(=O)O (stereo partly specified) |
| > 128 µg/mL | 4 µg/mL (≈ 8.39 µM) | C=Cc1ccc(C(=O)OCCC23CC4C(CC[C@H]4C)C4(C=O)CC2C=C(C(C)C)C43C(=O)O)cc1 (stereo partly specified) |
| > 128 µg/mL | > 128 µg/mL | CC(C)C1=CC2CC3(C=O)C4CC[C@@H](C)C4CC2(CCOC(=O)c2nccc4ccccc24)C13C(=O)O (stereo partly specified) |
| > 128 µg/mL | > 128 µg/mL | CC(C)C1=CC2CC3(C=O)C4CC[C@@H](C)C4CC2(CCOC(=O)CCN2CCCCC2)C13C(=O)O (stereo partly specified) |
| > 128 µg/mL | 1 µg/mL (≈ 2.1 µM) | CC(C)C1=CC2CC3(C=O)C4CC[C@@H](C)C4CC2(CCOC(=O)c2cccc(C#N)c2)C13C(=O)O (stereo partly specified) |
| 8 µg/mL (≈ 18.5 µM) | 0.25 µg/mL (≈ 0.578 µM) | CC(C)C1=CC2CC3(C=O)[C@@H]4CC[C@@H](C)[C@H]4CC2(C(O)C#Cc2ccccc2)[C@]13C(=O)O (stereo partly specified) |
| > 128 µg/mL | > 128 µg/mL | CC(C)C1=CC2CC3(C=O)C4CC[C@@H](C)C4CC2(CCOC(=O)c2ccc(Br)cc2)C13C(=O)O (stereo partly specified) |
| > 128 µg/mL | 2 µg/mL (≈ 4.04 µM) | CC(C)C1=CC2CC3(C=O)C4CC[C@@H](C)C4CC2(CCOC(=O)c2ccc4c(c2)OCO4)C13C(=O)O (stereo partly specified) |
| > 128 µg/mL | 4 µg/mL (≈ 8.54 µM) | CC(C)C1=CC2CC3(C=O)C4CC[C@@H](C)C4CC2(CCOC(=O)c2ccc(F)cc2)C13C(=O)O (stereo partly specified) |
| > 128 µg/mL | 4 µg/mL (≈ 7.54 µM) | CC(C)C1=CC2CC3(C=O)C4CC[C@@H](C)C4CC2(CCOC(=O)c2cncc(Br)c2)C13C(=O)O (stereo partly specified) |
| > 128 µg/mL | > 128 µg/mL | CC(C)C1=CC2CC3(C=O)[C@@H]4CC[C@@H](C)[C@H]4CC2(C(=O)C#CC(C)(C)C)[C@]13C(=O)O |
| 64 µg/mL (≈ 120 µM) | 2 µg/mL (≈ 3.75 µM) | CC(C)C1=CC2CC3(C=O)C4CC[C@@H](C)C4CC2(CCOC(=O)Cc2ccc(Br)o2)C13C(=O)O (stereo partly specified) |
| 4 µg/mL (≈ 9 µM) | < 0.06 µg/mL | CC(C)C1=CC2CC3(C=O)C4CC[C@@H](C)C4CC2(CCOC(=O)CC(C)(C)C)C13C(=O)O (stereo partly specified) |
| 64 µg/mL (≈ 154 µM) | 2 µg/mL (≈ 4.8 µM) | CC(C)CCOCCC12CC3C(CC[C@H]3C)C3(C=O)CC1C=C(C(C)C)C32C(=O)O (stereo partly specified) |
| 8 µg/mL (≈ 18.7 µM) | 0.5 µg/mL (≈ 1.17 µM) | CC(C)C1=CC2CC3(C=O)C4CC[C@@H](C)C4CC2(CCOC(=O)C2CCC2)C13C(=O)O (stereo partly specified) |
| 8 µg/mL (≈ 17.5 µM) | < 0.06 µg/mL | C=CCCCCC(=O)OCCC12CC3C(CC[C@H]3C)C3(C=O)CC1C=C(C(C)C)C32C(=O)O (stereo partly specified) |
| 4 µg/mL (≈ 9.04 µM) | 0.125 µg/mL (≈ 0.282 µM) | CC(C)C1=CC2CC3(C=O)C4CC[C@@H](C)C4CC2(CCOC(=O)C2CCCC2)C13C(=O)O (stereo partly specified) |
| 16 µg/mL (≈ 37.3 µM) | 0.5 µg/mL (≈ 1.17 µM) | CC(C)=CC(=O)OCCC12CC3C(CC[C@H]3C)C3(C=O)CC1C=C(C(C)C)C32C(=O)O (stereo partly specified) |
| 64 µg/mL (≈ 141 µM) | 2 µg/mL (≈ 4.4 µM) | CC(C)C1=CC2CC3(C=O)C4CC[C@@H](C)C4CC2(CCOC(=O)Cc2ccco2)C13C(=O)O (stereo partly specified) |
| 128 µg/mL (≈ 235 µM) | 16 µg/mL (≈ 29.4 µM) | CC(C)C1=CC2CC3(C=O)C4CC[C@@H](C)C4CC2(CCOC(=O)[C@@H]2CCCN2C(=O)OC(C)(C)C)C13C(=O)O (stereo partly specified) |
| 32 µg/mL (≈ 64.4 µM) | 0.5 µg/mL (≈ 1.01 µM) | CC(C)C1=CC2CC3(C=O)C4CC[C@@H](C)C4CC2(CCOC(=O)CSc2ccccc2)C13C(=O)O (stereo partly specified) |
| 128 µg/mL (≈ 310 µM) | 128 µg/mL (≈ 310 µM) | CC(C)C1=CC2CC3(C=O)[C@@H]4CC[C@@H](C)[C@H]4CC2(C(O)C#CC(C)(C)C)[C@]13C(=O)O (stereo partly specified) |
| 8 µg/mL (≈ 18.4 µM) | 16 µg/mL (≈ 36.8 µM) | CC(C)C1=CC2CC3(C=O)[C@@H]4CC[C@@H](C)[C@H]4CC2(C(=O)CCc2ccccc2)[C@]13C(=O)O |
| 8 µg/mL (≈ 17.5 µM) | < 0.06 µg/mL | CC(C)C1=CC2CC3(C=O)C4CC[C@@H](C)C4CC2(CCOC(=O)C2CCCCC2)C13C(=O)O (stereo partly specified) |
